From patent US20080009418A1, “Selective Inhibitors” (Alchemia LTD., priority 2004, published 2008)

Experiments:
Human opioid (ORL1) = biological target: T1, Human opioid (ORL1) (Homo sapiens, UniProt P41146); assay: Radioligand binding, human opioid ORL1 membranes, FlashPlate, [125I]-Nociceptin; conditions: compound at 10 μM
T1 construct: purchased Perkin Elmer Biosignal
Outline: (§1)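 Cloned human receptor membranes were coated onto FlashPlate wells and incubated with radioligand and compound (added from a 0.5 mM DMSO daughter plate) for 1 hour at room temperature in the dark. Scintillation counting gave percent inhibition, with DMSO defining total and reference ligand defining non-specific binding.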

Human μ-opioid (MOP) = biological target: T2, Human μ-opioid (MOP) (Homo sapiens, UniProt P35372); assay: Radioligand binding, human μ-opioid (MOP) membranes, FlashPlate, [3H]-Naloxone; conditions: compound at 10 μM; for A7 radioligand binding inhibition: human μ-opioid (MOP) membranes
T2 construct: purchased Perkin Elmer Biosignal
T2 sequence (P35372 whole entry): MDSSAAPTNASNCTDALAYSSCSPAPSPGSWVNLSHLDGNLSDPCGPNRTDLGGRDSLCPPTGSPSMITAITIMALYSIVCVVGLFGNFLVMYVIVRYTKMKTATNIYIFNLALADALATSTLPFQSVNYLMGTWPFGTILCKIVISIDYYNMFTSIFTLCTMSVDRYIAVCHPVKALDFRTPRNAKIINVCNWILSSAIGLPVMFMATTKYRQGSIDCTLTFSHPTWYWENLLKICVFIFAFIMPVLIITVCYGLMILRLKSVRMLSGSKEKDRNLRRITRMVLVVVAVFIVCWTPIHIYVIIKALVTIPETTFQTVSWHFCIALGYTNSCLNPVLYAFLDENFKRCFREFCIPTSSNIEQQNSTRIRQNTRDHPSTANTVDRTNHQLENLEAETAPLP
Outline: as §1

[1] = biological target: T3, Human melanin-concentrating hormone (MCH1) (Homo sapiens, UniProt Q99705); assay: Radioligand binding, human melanin-concentrating hormone MCH1 membranes, FlashPlate, [125I]-S36057; conditions: compound at 10 μM; for A6 radioligand binding inhibition: human MCH1 membranes
T3 construct: purchased Perkin Elmer Biosignal
T3 sequence (Q99705 whole entry): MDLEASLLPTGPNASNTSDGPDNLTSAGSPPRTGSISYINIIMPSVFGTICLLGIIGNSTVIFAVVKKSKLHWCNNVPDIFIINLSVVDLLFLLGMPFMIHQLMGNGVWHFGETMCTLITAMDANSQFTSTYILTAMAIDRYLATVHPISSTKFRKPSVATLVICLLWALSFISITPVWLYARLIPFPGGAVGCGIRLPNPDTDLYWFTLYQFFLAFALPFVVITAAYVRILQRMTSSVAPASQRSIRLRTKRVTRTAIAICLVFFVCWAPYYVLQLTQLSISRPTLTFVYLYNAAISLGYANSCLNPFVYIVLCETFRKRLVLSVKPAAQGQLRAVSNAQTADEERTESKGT
Outline: as §1

Human δ-opioid (DOP) = biological target: T4, Human δ-opioid (DOP) (Homo sapiens, UniProt P41143); assay: Radioligand binding, human δ-opioid (DOP) membranes, FlashPlate, [3H]-Bremazocine; conditions: compound at 10 μM; for A1 radioligand binding inhibition: human δ-opioid (DOP) membranes
T4 construct: purchased Perkin Elmer Biosignal
T4 sequence (P41143 whole entry): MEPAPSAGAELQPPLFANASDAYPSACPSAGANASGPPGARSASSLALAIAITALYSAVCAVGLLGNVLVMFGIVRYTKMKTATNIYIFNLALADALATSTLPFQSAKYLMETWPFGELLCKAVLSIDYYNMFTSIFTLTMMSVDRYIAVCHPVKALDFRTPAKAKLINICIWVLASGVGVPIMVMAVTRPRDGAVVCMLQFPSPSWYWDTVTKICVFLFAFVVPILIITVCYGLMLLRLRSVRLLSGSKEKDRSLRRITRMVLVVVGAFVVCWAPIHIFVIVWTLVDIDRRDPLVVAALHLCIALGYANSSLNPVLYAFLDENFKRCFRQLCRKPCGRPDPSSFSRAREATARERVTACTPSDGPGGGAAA
Outline: as §1

Human Melanocortin (MC4) = biological target: T5, Human Melanocortin (MC4) (Homo sapiens, UniProt P32245); assay: Radioligand binding, human melanocortin MC4 membranes, FlashPlate, [125I]-NDP-αMSH; conditions: compound at 10 μM; for A4 radioligand binding inhibition: human melanocortin MC4 membranes
T5 construct: purchased Perkin Elmer Biosignal
T5 sequence (P32245 whole entry): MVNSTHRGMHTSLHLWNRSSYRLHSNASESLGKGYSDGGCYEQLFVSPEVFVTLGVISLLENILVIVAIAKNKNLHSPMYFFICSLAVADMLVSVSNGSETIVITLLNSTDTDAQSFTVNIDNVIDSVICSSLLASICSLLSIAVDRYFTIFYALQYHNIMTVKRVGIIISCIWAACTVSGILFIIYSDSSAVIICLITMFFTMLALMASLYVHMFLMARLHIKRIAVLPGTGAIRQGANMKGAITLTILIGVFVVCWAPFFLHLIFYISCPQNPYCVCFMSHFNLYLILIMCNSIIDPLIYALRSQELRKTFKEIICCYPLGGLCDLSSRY
Outline: as §1

[2] = biological target: T6, Human neuropeptide Y (NPY-Y1) (Homo sapiens, UniProt P25929); assay: Radioligand binding, human neuropeptide Y NPY-Y1 membranes, FlashPlate, [125I]-PYY; conditions: compound at 10 μM
T6 construct: purchased Perkin Elmer Biosignal
T6 sequence (P25929 1-384): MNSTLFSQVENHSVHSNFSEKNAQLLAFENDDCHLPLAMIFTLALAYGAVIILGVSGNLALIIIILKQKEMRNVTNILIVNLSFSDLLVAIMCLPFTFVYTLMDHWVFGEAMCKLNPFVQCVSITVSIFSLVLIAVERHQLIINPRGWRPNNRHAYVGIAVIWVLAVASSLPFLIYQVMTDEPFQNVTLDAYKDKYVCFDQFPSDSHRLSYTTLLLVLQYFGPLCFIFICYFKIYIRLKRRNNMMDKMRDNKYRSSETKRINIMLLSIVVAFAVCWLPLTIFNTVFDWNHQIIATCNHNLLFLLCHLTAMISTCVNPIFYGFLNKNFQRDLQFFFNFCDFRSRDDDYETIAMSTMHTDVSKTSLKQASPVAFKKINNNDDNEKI
Outline: as §1

Human Melanocortin (MC3) = biological target: T7, Human Melanocortin (MC3) (Homo sapiens, UniProt P41968); assay: Radioligand binding, human melanocortin MC3 membranes, FlashPlate, [125I]-NDP-αMSH; conditions: compound at 10 μM; for A3 radioligand binding inhibition: human melanocortin MC3 membranes
T7 construct: purchased Perkin Elmer Biosignal
T7 sequence (P41968 whole entry): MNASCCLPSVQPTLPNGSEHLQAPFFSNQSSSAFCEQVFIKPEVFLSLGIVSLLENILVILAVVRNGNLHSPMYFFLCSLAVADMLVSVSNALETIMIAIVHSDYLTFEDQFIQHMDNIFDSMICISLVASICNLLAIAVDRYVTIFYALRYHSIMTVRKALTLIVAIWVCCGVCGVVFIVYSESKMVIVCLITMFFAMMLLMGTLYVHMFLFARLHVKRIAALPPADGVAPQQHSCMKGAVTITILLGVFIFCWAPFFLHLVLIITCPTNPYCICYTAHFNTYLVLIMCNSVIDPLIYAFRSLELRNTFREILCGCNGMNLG
Outline: as §1

Mouse urotensin (mUR2) = biological target: T8, Mouse urotensin (mUR2) (Mus musculus, UniProt Q8VIH9); assay: Radioligand binding, mouse urotensin mUR2 membranes, FlashPlate, [125I]-Urotensin II; conditions: compound at 10 μM; for A11 radioligand binding inhibition: mouse urotensin mUR2 membranes
T8 construct: purchased Perkin Elmer Biosignal
T8 sequence (Q8VIH9 1-385): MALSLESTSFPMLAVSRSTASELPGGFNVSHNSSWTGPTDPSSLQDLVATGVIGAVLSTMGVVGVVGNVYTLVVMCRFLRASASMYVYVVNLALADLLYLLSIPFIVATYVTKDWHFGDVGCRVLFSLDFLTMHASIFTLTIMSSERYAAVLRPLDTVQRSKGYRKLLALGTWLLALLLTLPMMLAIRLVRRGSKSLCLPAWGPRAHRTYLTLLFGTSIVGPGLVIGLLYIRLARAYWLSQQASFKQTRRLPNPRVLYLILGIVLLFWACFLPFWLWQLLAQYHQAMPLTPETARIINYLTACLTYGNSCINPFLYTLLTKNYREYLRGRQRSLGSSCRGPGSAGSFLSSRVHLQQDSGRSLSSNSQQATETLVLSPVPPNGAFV
Outline: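 Cloned mouse urotensin (mUR2) receptor membranes from Perkin Elmer Biosignal were immobilized in FlashPlate microplates using a proprietary coating. Each well got 19.5 μl buffer, then 0.5 μl of DMSO, reference ligand, or compound. Adding 5 μl of [125I]-Urotensin II, diluted to 5× final concentration in binding buffer, started binding. Plates were sealed with TopSeal-A and incubated 1 hour at room temperature in the dark. Wells were counted for 30 seconds each on a TopCount after a 60-second delay, and percentage inhibition was calculated.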

Human melanocortin (MC5) = biological target: T9, Human melanocortin (MC5) (Homo sapiens, UniProt P33032); assay: Radioligand binding, human melanocortin MC5 membranes, FlashPlate, [125I]-NDP-αMSH; conditions: compound at 10 μM; for A5 radioligand binding inhibition: human melanocortin MC5 membranes
T9 construct: purchased Perkin Elmer Biosignal
T9 sequence (P33032 whole entry): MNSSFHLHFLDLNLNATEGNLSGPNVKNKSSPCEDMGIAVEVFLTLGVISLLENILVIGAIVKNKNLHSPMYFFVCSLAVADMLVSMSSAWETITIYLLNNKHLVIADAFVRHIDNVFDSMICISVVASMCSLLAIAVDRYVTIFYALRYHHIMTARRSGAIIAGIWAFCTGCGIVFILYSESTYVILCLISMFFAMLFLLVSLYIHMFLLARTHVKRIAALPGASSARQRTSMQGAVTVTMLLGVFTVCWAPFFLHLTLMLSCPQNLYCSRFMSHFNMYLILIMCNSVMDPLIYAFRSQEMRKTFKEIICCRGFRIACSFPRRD
Outline: as §1

Human neurokinin (NK1) = biological target: T10, Human neurokinin (NK1) (Homo sapiens, UniProt P25103); assay: Radioligand binding, human neurokinin NK1 membranes, filtration, [125I]-Substance P; conditions: compound at 10 μM; for A8 radioligand binding inhibition: human neurokinin NK1 membranes
T10 construct: purchased Perkin Elmer Biosignal
T10 sequence (P25103 whole entry): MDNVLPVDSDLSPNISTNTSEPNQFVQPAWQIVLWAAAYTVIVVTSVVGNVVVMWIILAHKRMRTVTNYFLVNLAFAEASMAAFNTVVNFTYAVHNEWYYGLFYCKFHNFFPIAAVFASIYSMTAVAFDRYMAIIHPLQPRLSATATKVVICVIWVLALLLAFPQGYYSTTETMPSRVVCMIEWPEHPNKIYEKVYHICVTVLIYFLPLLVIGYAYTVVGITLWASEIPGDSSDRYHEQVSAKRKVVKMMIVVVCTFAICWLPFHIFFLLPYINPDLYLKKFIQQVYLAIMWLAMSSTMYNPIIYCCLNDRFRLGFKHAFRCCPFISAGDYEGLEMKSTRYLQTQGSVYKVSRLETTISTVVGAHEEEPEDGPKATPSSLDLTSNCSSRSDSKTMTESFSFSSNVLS
Outline: (§2)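 Filtration binding on cloned human receptor membranes (1 Unit/well), [125I]-Substance P for NK1 and [3H]-Diprenorphine for KOP, 1 h at room temperature. Filters PEI-presoaked, washed with cold 50 mM Tris-HCl pH 7.4, counted by scintillation; percent inhibition calculated, reference ligand defining non-specific binding.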

Human κ-Opioid (KOP) = biological target: T11, Human κ-Opioid (KOP) (Homo sapiens, UniProt P41145); assay: Radioligand binding, human κ-opioid (KOP) membranes, filtration, [3H]-Diprenorphine; conditions: compound at 10 μM; for A2 radioligand binding inhibition: human κ-opioid (KOP) membranes
T11 construct: purchased Perkin Elmer Biosignal
T11 sequence (P41145 whole entry): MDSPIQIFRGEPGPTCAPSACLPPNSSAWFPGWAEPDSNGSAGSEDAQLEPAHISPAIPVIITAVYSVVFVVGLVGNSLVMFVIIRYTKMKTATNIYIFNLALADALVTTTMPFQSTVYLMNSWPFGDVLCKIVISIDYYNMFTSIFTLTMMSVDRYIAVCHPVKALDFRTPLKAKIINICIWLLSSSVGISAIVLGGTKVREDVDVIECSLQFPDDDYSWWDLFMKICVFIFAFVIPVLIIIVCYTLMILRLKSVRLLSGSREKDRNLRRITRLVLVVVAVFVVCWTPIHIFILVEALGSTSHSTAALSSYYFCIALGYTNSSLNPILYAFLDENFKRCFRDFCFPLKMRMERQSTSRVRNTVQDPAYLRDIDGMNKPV
Outline: as §2

T1 sequence (P41146 whole entry): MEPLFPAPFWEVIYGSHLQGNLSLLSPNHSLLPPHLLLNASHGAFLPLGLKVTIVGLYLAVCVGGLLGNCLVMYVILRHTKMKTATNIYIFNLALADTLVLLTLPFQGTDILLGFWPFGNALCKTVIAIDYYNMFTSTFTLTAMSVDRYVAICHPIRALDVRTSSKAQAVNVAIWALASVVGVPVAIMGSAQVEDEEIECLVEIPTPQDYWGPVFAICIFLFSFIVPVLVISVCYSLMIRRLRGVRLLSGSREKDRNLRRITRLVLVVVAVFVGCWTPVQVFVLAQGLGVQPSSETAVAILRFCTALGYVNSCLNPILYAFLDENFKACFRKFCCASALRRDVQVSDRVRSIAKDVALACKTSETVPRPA

COC[C@H]1OC(OCc2ccc(Cl)cc2)[C@H](NC(=O)CCNC(=N)N)[C@@H](OCc2ccc3ccccc3c2)[C@@H]1O (stereo partly shown) [compound 32]
A10 radioligand binding inhibition (Human opioid (ORL1); human ORL1 membranes): − (“−” indicates less than 50% inhibition at 10 μM)
A7 radioligand binding inhibition (Human μ-opioid (MOP)): − (“−” indicates less than 50% inhibition at 10 μM)
A6 radioligand binding inhibition [1]: − (“−” indicates less than 50% inhibition at 10 μM)
A1 radioligand binding inhibition (Human δ-opioid (DOP)): + (“+” indicates greater than 50% inhibition at 10 μM)
A4 radioligand binding inhibition (Human Melanocortin (MC4)): − (“−” indicates less than 50% inhibition at 10 μM)
A9 radioligand binding inhibition ([2]; human NPY-Y1 membranes): − (“−” indicates less than 50% inhibition at 10 μM)
A3 radioligand binding inhibition (Human Melanocortin (MC3)): − (“−” indicates less than 50% inhibition at 10 μM)
A11 radioligand binding inhibition (Mouse urotensin (mUR2)): − (“−” indicates less than 50% inhibition at 10 μM)
A5 radioligand binding inhibition (Human melanocortin (MC5)): + (“+” indicates greater than 50% inhibition at 10 μM)
A8 radioligand binding inhibition (Human neurokinin (NK1)): + (“+” indicates greater than 50% inhibition at 10 μM)
A2 radioligand binding inhibition (Human κ-Opioid (KOP)): − (“−” indicates less than 50% inhibition at 10 μM)

CSC1OC(COCc2cccc(N)c2)C(O)C(OCc2ccc(Cl)cc2)C1NC(=O)c1ccccc1 (stereo not shown) [compound 327]
A10: inhibition of radioligand binding, human opioid (ORL1) (Human opioid (ORL1); [125I]-Nociceptin): − (“−” indicates less than 50% inhibition at 10 μM)
A7: inhibition of radioligand binding, human μ-opioid (MOP) (Human μ-opioid (MOP); [3H]-Naloxone): − (“−” indicates less than 50% inhibition at 10 μM)
A6: inhibition of radioligand binding, human melanin-concentrating hormone (MCH1) ([1]; [125I]-S36057): − (“−” indicates less than 50% inhibition at 10 μM)
A1: inhibition of radioligand binding, human δ-opioid (DOP) (Human δ-opioid (DOP); [3H]-Bremazocine): − (“−” indicates less than 50% inhibition at 10 μM)
A4: inhibition of radioligand binding, human melanocortin (MC4) (Human Melanocortin (MC4); [125I]-NDP-αMSH): − (“−” indicates less than 50% inhibition at 10 μM)
A9: inhibition of radioligand binding, human neuropeptide Y (NPY-Y1) ([2]; [125I]-PYY): − (“−” indicates less than 50% inhibition at 10 μM)
A3: inhibition of radioligand binding, human melanocortin (MC3) (Human Melanocortin (MC3); [125I]-NDP-αMSH): − (“−” indicates less than 50% inhibition at 10 μM)
A11: inhibition of radioligand binding, mouse urotensin (mUR2) (Mouse urotensin (mUR2); [125I]-Urotensin II): − (“−” indicates less than 50% inhibition at 10 μM)
A5: inhibition of radioligand binding, human melanocortin (MC5) (Human melanocortin (MC5); [125I]-NDP-αMSH): − (“−” indicates less than 50% inhibition at 10 μM)
A8: inhibition of radioligand binding, human neurokinin (NK1) (Human neurokinin (NK1); [125I]-Substance P): + (“+” indicates greater than 50% inhibition at 10 μM)
A2: inhibition of radioligand binding, human κ-opioid (KOP) (Human κ-Opioid (KOP); [3H]-Diprenorphine): − (“−” indicates less than 50% inhibition at 10 μM)

CO[C@H]1[C@H](O)[C@@H](COCc2ccc(Cl)cc2)OC(OCc2ccc(-c3ccccc3)cc2)[C@@H]1NC(=O)CCNC(=N)N (stereo partly shown) [compound 63]
A10 radioligand binding inhibition (Human opioid (ORL1); human ORL1 membranes): + (“+” indicates greater than 50% inhibition at 10 μM)
A7 radioligand binding inhibition (Human μ-opioid (MOP)): + (“+” indicates greater than 50% inhibition at 10 μM)
A6 radioligand binding inhibition [1]: + (“+” indicates greater than 50% inhibition at 10 μM)
A1 radioligand binding inhibition (Human δ-opioid (DOP)): − (“−” indicates less than 50% inhibition at 10 μM)
A4 radioligand binding inhibition (Human Melanocortin (MC4)): + (“+” indicates greater than 50% inhibition at 10 μM)
A9 radioligand binding inhibition ([2]; human NPY-Y1 membranes): + (“+” indicates greater than 50% inhibition at 10 μM)
A3 radioligand binding inhibition (Human Melanocortin (MC3)): + (“+” indicates greater than 50% inhibition at 10 μM)
A11 radioligand binding inhibition (Mouse urotensin (mUR2)): − (“−” indicates less than 50% inhibition at 10 μM)
A5 radioligand binding inhibition (Human melanocortin (MC5)): + (“+” indicates greater than 50% inhibition at 10 μM)
A8 radioligand binding inhibition (Human neurokinin (NK1)): + (“+” indicates greater than 50% inhibition at 10 μM)
A2 radioligand binding inhibition (Human κ-Opioid (KOP)): + (“+” indicates greater than 50% inhibition at 10 μM)

COC[C@H]1OC(OCCc2ccccc2)[C@H](NC(=O)CNC(=N)N)[C@@H](OCc2ccc(Cl)cc2)[C@@H]1O (stereo partly shown) [compound 48]
A10 radioligand binding inhibition (Human opioid (ORL1); human ORL1 membranes): − (“−” indicates less than 50% inhibition at 10 μM)
A7 radioligand binding inhibition (Human μ-opioid (MOP)): − (“−” indicates less than 50% inhibition at 10 μM)
A6 radioligand binding inhibition [1]: + (“+” indicates greater than 50% inhibition at 10 μM)
A1 radioligand binding inhibition (Human δ-opioid (DOP)): − (“−” indicates less than 50% inhibition at 10 μM)
A4 radioligand binding inhibition (Human Melanocortin (MC4)): + (“+” indicates greater than 50% inhibition at 10 μM)
A9 radioligand binding inhibition ([2]; human NPY-Y1 membranes): − (“−” indicates less than 50% inhibition at 10 μM)
A3 radioligand binding inhibition (Human Melanocortin (MC3)): − (“−” indicates less than 50% inhibition at 10 μM)
A11 radioligand binding inhibition (Mouse urotensin (mUR2)): − (“−” indicates less than 50% inhibition at 10 μM)
A5 radioligand binding inhibition (Human melanocortin (MC5)): + (“+” indicates greater than 50% inhibition at 10 μM)
A8 radioligand binding inhibition (Human neurokinin (NK1)): − (“−” indicates less than 50% inhibition at 10 μM)
A2 radioligand binding inhibition (Human κ-Opioid (KOP)): − (“−” indicates less than 50% inhibition at 10 μM)

NCCC(=O)NC1C(OCc2ccc(Cl)cc2)OC(COCc2ccccc2)C(O)C1OCc1ccc(Cl)cc1 (single isomer, unassigned) [compound 473]
A10: inhibition of radioligand binding (Human opioid (ORL1); [125I]-Nociceptin, human ORL1 membranes, 10 µM): − (“−” indicates less than 50% inhibition at 10 μM)
A7: inhibition of radioligand binding (Human μ-opioid (MOP); [3H]-Naloxone, human MOP membranes, 10 µM): + (“+” indicates greater than 50% inhibition at 10 μM)
A6: inhibition of radioligand binding ([1]; [125I]-S36057, human MCH1 membranes, 10 µM): + (“+” indicates greater than 50% inhibition at 10 μM)
A1: inhibition of radioligand binding (Human δ-opioid (DOP); [3H]-Bremazocine, human DOP membranes): − (“−” indicates less than 50% inhibition at 10 μM)
A4: inhibition of radioligand binding (Human Melanocortin (MC4); [125I]-NDP-αMSH, human MC4 membranes): − (“−” indicates less than 50% inhibition at 10 μM)
A9: inhibition of radioligand binding ([2]; [125I]-PYY, human NPY-Y1 membranes): − (“−” indicates less than 50% inhibition at 10 μM)
A3: inhibition of radioligand binding (Human Melanocortin (MC3); [125I]-NDP-αMSH, human MC3 membranes): − (“−” indicates less than 50% inhibition at 10 μM)
A11: inhibition of radioligand binding (Mouse urotensin (mUR2); [125I]-Urotensin II, mouse mUR2 membranes): − (“−” indicates less than 50% inhibition at 10 μM)
A5: inhibition of radioligand binding (Human melanocortin (MC5); [125I]-NDP-αMSH, human MC5 membranes, 10 µM): + (“+” indicates greater than 50% inhibition at 10 μM)
A8: inhibition of radioligand binding (Human neurokinin (NK1); [125I]-Substance P, human NK1 membranes): + (“+” indicates greater than 50% inhibition at 10 μM)
A2: inhibition of radioligand binding (Human κ-Opioid (KOP); [3H]-Diprenorphine, human KOP membranes): − (“−” indicates less than 50% inhibition at 10 μM)
